According to patent US20130029983A1, “AMINOTHIENOPYRIDAZINE INHIBITORS OF TAU ASSEMBLY” (priority 2009, published 2013):
Read-outs that look alike come from different tables or passages of the source.

Experiments:
[1] = target: T1, K18PL tau (Homo sapiens, UniProt P10636, P618L); test: Heparin-induced K18PL tau fibrillization assay monitored by ThT fluorescence; type: biochemical; conditions: for inhibition at 80 µM / Tau ThT Assay % Inhib.: highest tested concentration (80 μM); for inhibition at 80 µM: read-out: Tau ThT Assay % Inhib.; for IC50 / Tau ThT Assay Log IC50: logarithm of IC50, K18PL tau ThT fluorescence inhibition; for IC50: read-out: Tau ThT Assay Log IC50 (converted)
T1 construct: (K18PL; amino acids 244-369); made in house
Method: Tau fibril formation reactions were performed essentially as described (Crowe, A., Ballatore, C., Hyde, E., Trojanowski, J. Q., and Lee, V. M. Y. (2007) Biochemical and Biophysical Research Communications 358, 1-6). K18PL (2 μl of a 30 μM stock that also contained 0.24 μM Alexa Red-labeled K18PL) was dispensed into black 1536-well plates (Grenier) using a solenoid-based dispenser. Following transfer of 23 nL of test compound or DMSO vehicle by a pin tool from compound library plates, 2 μl/well of 40 μM heparin in reagent buffer was dispensed and the plate was centrifuged for 15 s at 1000 rpm in a table-top centrifuge. The fibrillization reaction proceeded for 6 hours at 37° C. in a humidified incubator (Kalypsys).
K18PL fibril formation was quantified with a ThT assay as previously described (Crowe, A., Ballatore, C., Hyde, E., Trojanowski, J. Q., and Lee, V. M. Y. (2007) Biochemical and Biophysical Research Communications 358, 1-6). Briefly, 1 μl/well of 62.5 μM ThT (Sigma) in 100 mM glycine, pH 8.5 (12.5 μM final concentration) was dispensed into 1536-well plates after completion of the fibrillization reaction and incubated at room temperature for 1 hour. Plates were read on an Envision fluorescence plate reader with an excitation of 450 nm and an emission setting of 510 nm.
Compound effects on tau assembly were determined for the ThT and FP assays using the formula 1−(Fcompound− FDMSO)/( Fcontrol− FDMSO), where Fcontrol denotes the median plate fluorescence values (ThT assay) or mP values (FP assay) of the non-fibrillizing K18 KD control wells, FDMSO denotes the median value of the DMSO control wells, and Fcompound denotes the compound well values. The resulting values were multiplied by 100 to obtain the percent inhibition of tau fibril formation.
(§1) The solubility of test compounds in the sodium acetate buffer used for subsequent fibrillization reactions was determined by turbidimetric measurements. Compounds were then evaluated in a heparin-induced tau assembly assay, in which the fibrillization of the truncated K18 tau fragment (comprised of four MT-binding repeats) bearing the P301L mutation (K18PL) found in FTDP-17, was monitored by thioflavine-T (ThT) binding and fluorescence (FIG. 3A). (Crowe, A.; et al., Identification of aminothienopyridazine inhibitors of tau assembly by quantitative high-throughput screening. Biochemistry 2009, 48, 7732-45.) The inhibitory activity of test compounds was then confirmed with an orthogonal sedimentation assay in which compound-treated fibrillizing mixtures were centrifuged and quantitation of K18PL tau in the soluble and insoluble fraction was performed by densitometric analyses of SDS-PAGE (FIG. 3B). […] Thus, the tau fibrillization assay was repeated in which both DMSO- and compound-treated mixtures were initially centrifuged for 30 min. prior to incubation (i.e., at time zero of the fibrillization reaction) to remove any pelletable material.

[2] = target: T1, K18PL tau; test: K18PL tau centrifugation (sedimentation) assay, SDS-PAGE densitometry; type: biochemical; conditions: K18PL tau centrifugation assay
Method: The determination of compound-induced effects on the amount of tau that remains soluble upon centrifugation, and EM visualization of tau species following incubation with test compounds, were as previously described (Crowe, A., Ballatore, C., Hyde, E., Trojanowski, J. Q., and Lee, V. M. Y. (2007) Biochemical and Biophysical Research Communications 358, 1-6).
as §1

[3] = target: T2, Aβ(1-42) (Homo sapiens, UniProt P05067); test: Aβ(1-42) fibrillization assay (ThT); type: biochemical; conditions: Table 3, highest tested concentration (80 μM); for inhibition at 80 µM: read-out: Aβ42 ThT Assay % Inhib.
T2 construct: Synthetic Aβ(1-42) peptide (rPeptide); purchased rPeptide

[4] = Table 3, NC = not calculated due to insufficient activity

T2 sequence (P05067 672-713 limits assumed): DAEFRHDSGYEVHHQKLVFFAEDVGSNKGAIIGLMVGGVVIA
T1 sequence (P10636 561-686 P618L): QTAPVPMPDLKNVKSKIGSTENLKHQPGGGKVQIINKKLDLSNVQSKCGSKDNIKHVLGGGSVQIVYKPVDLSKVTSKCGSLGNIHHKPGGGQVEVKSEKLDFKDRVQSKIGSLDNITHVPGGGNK

Row | Tau Cent. Assay % Soluble ([2]; Table 4) [%] | Tau Cent. Assay % Soluble ([2]; Table 3) [%] | inhibition at 80 µM [3] [%] | inhibition at 80 µM ([1]; Table 3) [%] | IC50 [1, 4] [µM] | SMILES | further results
1 | 61 |  |  |  |  | CCOC(=O)c1nn(-c2ccc(NC)cc2)c(=O)c2c(N)scc12 [CNDR-51358, Ethyl 5-amino-3-(4-(methylamino)phenyl)-4-oxo-3,4-dihydrothieno[3,4-d]pyridazine-1-carboxylate] | melting point: 211 to 213 °C; inhibition at 80 µM ([1]; Table 4): 76%; IC50 ([1]; Table 4): 3.98 µM
2 | 70 |  |  |  |  | CCOC(=O)c1nn(-c2ccc(N(C)C)cc2)c(=O)c2c(N)scc12 [CNDR-51359, Ethyl 5-amino-3-(4-(dimethylamino)phenyl)-4-oxo-3,4-dihydrothieno[3,4-d]pyridazine-1-carboxylate] | melting point: 211 to 213 °C; inhibition at 80 µM ([1]; Table 4): 68%; IC50 ([1]; Table 4): 3.16 µM
3 |  |  |  |  |  | CCOC(=O)c1nn(-c2ccc(Br)cc2)c(=O)c2c(N)scc12 [CNDR-51386, Ethyl 5-amino-3-(4-bromophenyl)-4-oxo-3,4-dihydrothieno[3,4-d]pyridazine-1-carboxylate] | melting point: 198 to 200 °C
4 | 58 |  |  |  |  | CCOC(=O)c1nn(-c2ccccc2C)c(=O)c2c(N)scc12 [CNDR-51424, Ethyl 5-amino-4-oxo-3-(o-tolyl)-3,4-dihydrothieno[3,4-d]pyridazine-1-carboxylate] | inhibition at 80 µM ([1]; Table 4): 82%; IC50 ([1]; Table 4): 1.26 µM
5 | 61 |  |  |  |  | CCOC(=O)c1nn(-c2ccccc2Cl)c(=O)c2c(N)scc12 [CNDR-51425, Ethyl 5-amino-3-(2-chlorophenyl)-4-oxo-3,4-dihydrothieno[3,4-d]pyridazine-1-carboxylate] | inhibition at 80 µM ([1]; Table 4): 87%; IC50 ([1]; Table 4): 5.01 µM
6 | 77 |  |  |  |  | Nc1scc2c(C(=O)NCCO)nn(-c3ccc(Cl)cc3)c(=O)c12 [CNDR-51433, 5-Amino-3-(4-chlorophenyl)-N-(2-hydroxyethyl)-4-oxo-3,4-dihydrothieno[3,4-d]pyridazine-1-carboxamide] | inhibition at 80 µM ([1]; Table 4): 82%; IC50 ([1]; Table 4): 3.98 µM
7 | 56 |  |  |  |  | CCOC(=O)c1nn(-c2ccc(C)cc2C)c(=O)c2c(N)scc12 [CNDR-51434] | Tau ThT Assay % Inhib. ([1]; Table 4): 87%; Tau ThT Assay Log IC50 ([1]; Table 4): −5.7
8 | 65 |  |  |  |  | CCOC(=O)c1nn(-c2ccccc2-c2ccccc2)c(=O)c2c(N)scc12 [CNDR-51435, Ethyl 3-([1,1′-biphenyl]-2-yl)-5-amino-4-oxo-3,4-dihydrothieno[3,4-d]pyridazine-1-carboxylate] | inhibition at 80 µM ([1]; Table 4): 78%; IC50 ([1]; Table 4): 0.794 µM
9 | 41 |  |  |  |  | CCOC(=O)c1nn(-c2ccccc2F)c(=O)c2c(N)scc12 [CNDR-51439, Ethyl 5-amino-3-(2-fluorophenyl)-4-oxo-3,4-dihydrothieno[3,4-d]pyridazine-1-carboxylate] | inhibition at 80 µM ([1]; Table 4): 48%; IC50 ([1]; Table 4): 0.794 µM
10 | 59 |  |  |  |  | CCN(CC)C(=O)c1nn(-c2ccc(OC)cc2)c(=O)c2c(N)scc12 [CNDR-51443, 5-Amino-N,N-diethyl-3-(4-methoxyphenyl)-4-oxo-3,4-dihydrothieno[3,4-d]pyridazine-1-carboxamide] | inhibition at 80 µM ([1]; Table 4): 75%; IC50 ([1]; Table 4): 7.94 µM
11 |  | 28 | 7 | 48 |  | CCOC(=O)c1nn(-c2ccc(C)c(C)c2)c(=O)c2c(N)scc12 [Compound 5c] | 
12 |  | 23 | 4 | 29 |  | CCOC(=O)c1ccc(-n2nc(C(=O)OCC)c3csc(N)c3c2=O)cc1 [Compound 5e] | 
13 |  | 4 | 21 | 35 |  | CCOC(=O)c1nn(-c2ccccc2)c(=O)c2c(N)sc(C)c12 [Compound 5f] | 
14 |  | 12 | 6 | 29 |  | CCOC(=O)c1nn(-c2ccc(Cl)c(Cl)c2)c(=O)c2c(N)scc12 [Compound 5g] | 
15 |  | 35 | 12 | 51 | 126 | CCOC(=O)c1nn(-c2ccc(C)cc2)c(=O)c2c(N)scc12 [Compound 5h] | 
16 |  | 84 | 20 | 92 | 7.94 | Nc1scc2c(C(=O)O)nn(-c3ccccc3)c(=O)c12 [Compound 6a] | 
17 |  | 95 | 1 | 94 | 2.51 | COc1ccc(-n2nc(C(=O)O)c3csc(N)c3c2=O)cc1 [Compound 6b] | 
18 |  | 54 | 27 | 80 | 7.94 | Nc1scc2c(C(=O)NCc3ccccc3)nn(-c3ccccc3)c(=O)c12 [Compound 8a] | 
19 |  | 89 | 0 | 81 | 15.8 | Nc1scc2c(C(=O)N3CCOCC3)nn(-c3ccccc3)c(=O)c12 [Compound 8b] | 
20 |  | 89 | 16 | 93 | 6.31 | NC(=O)c1nn(-c2ccccc2)c(=O)c2c(N)scc12 [Compound 8c] | 
21 |  | 99 | 35 | 95 | 10 | CCN(CC)C(=O)c1nn(-c2ccc(OC)cc2)c(=O)c2c(N)scc12 [Compound 8d] | 
22 |  | 0 |  |  |  | CCOC(=O)c1nn(-c2ccc(OC)cc2)c(=O)c2c(NC(=O)Cc3ccccc3)scc12 [Compound 9a] | Tau ThT Assay % Inhib. ([1]; Table 3): 31%
23 |  | 11 |  | 27 |  | CCOC(=O)c1nn(-c2ccccc2)c(=O)c2c(NC(C)=O)scc12 [Compound 9b] | 
24 |  | 2 | -7 | 8 |  | CCOC(=O)c1nn(-c2ccccc2)c(=O)c2c(NC(=O)c3ccccc3)scc12 [Compound 9c] | 
25 |  | 86 | 21 | 92 | 6.31 | Nc1nn(-c2ccccc2)c(=O)c2c(N)scc12 [Compound 14] | 
26 |  | 81 | 10 | 91 | 6.31 | Nc1scc2c(CO)nn(-c3ccccc3)c(=O)c12 [Compound 15] | 
27 |  | 5 | -11 | 11 |  | CC(=O)Nc1sc(C)c2cnn(-c3ccccc3)c(=O)c12 [Compound 16] | 
28 |  | 64 | 29 | 86 | 5.01 | COC(=O)c1nn(-c2ccc(F)cc2)c(=O)c2c(N)scc12 [Compound 18] | 
29 |  | 41 |  | 66 | 10 | COC(=O)c1nn(-c2cccc(C(F)(F)F)c2)c(=O)c2c(N)scc12 [Compound 19] | 

Row | SMILES | Tau Cent. Assay % Soluble ([2]; Table 4) [%] | Tau Cent. Assay % Soluble ([2]; Table 3) [%] | inhibition at 80 µM [3] [%] | inhibition at 80 µM ([1]; Table 3) [%] | IC50 [1, 4] [µM] | further results
30 | CCOC(=O)c1nn(-c2ccccc2)c(=O)c2c(N)scc12 [Compound 5a] |  | 55 |  |  |  | Aβ42 ThT Assay % Inhib. [3]: −1%; Tau ThT Assay % Inhib. ([1]; Table 3): 80%; Tau ThT Assay Log IC50 [1, 4]: −5.2
